Test results: patent publication US4471131A, “Novel silyl esters of N-phosphonomethylglycine” (Monsanto Company, priority 1983, dated 1984)

What was measured:
Experiment in all cases: post-emergence herbicidal activity, greenhouse
Format in all cases: in vivo
[1] = system: Barnyardgrass
From the text: (§1) A good grade of top soil is placed in aluminum pans having holes in the bottom and compacted to a depth of 0.95 to 1.27 cm. from the top of the pan. A predetermined number of seeds of each of several dicotyledonous and moncotyledonous annual plant species and/or vegetative propagules for the perennial plant species were placed on the soil and pressed into the soil surface. The seeds and/or vegetative propagules are covered with soil and leveled. The pans are then placed on a sand bench in the greenhouse and watered from below as needed. After the plants reach the desired age (two to three weeks), each pan, except for the control pans, is removed individually to a spraying chamber and sprayed by means of an atomizer at the rates noted. In the spray solution is an amount of an emulsifying agent mixture to give a spray solution or suspension which contains about 0.4% by weight of the emulsifier. The spray solution or suspension contains a sufficient amount of the candidate chemical in order to give application rates corresponding to those set forth in the tables. The pans were returned to the greenhouse and watered as before and the injury to the plants as compared to the control is observed at approximately two and four weeks and the results recorded. In the tables, WAT means "weeks after treatment."
(§2) The post-emergent herbicidal activity index used in Tables II and III is as follows:
(§3) The plant species utilized in these tests are identified by letter in accordance with the following legend: […]

[2] = system: Canada Thistle; details: Table II, formulated immediately prior to treatment
From the text: as §1, §2, §3

[3] = system: Cocklebur
From the text: as §1, §2, §3

[4] = system: Common Lambsquarters
From the text: as §1, §2, §3

[5] = system: Downy Brome
From the text: as §1, §2, §3

[6] = system: Hemp Sesbania; details: Table III, 2 WAT
From the text: as §1, §2, §3

[7] = system: Johnsongrass; details: Table II, formulated immediately prior to treatment
From the text: as §1, §2, §3

[8] = system: Large Crabgrass; details: Table III, 2 WAT
From the text: as §1, §2, §3

[9] = system: Morningglory
From the text: as §1, §2, §3

[10] = system: Panicum Spp; details: Table III, 2 WAT
From the text: as §1, §2, §3

[11] = system: Pennsylvania Smartweed
From the text: as §1, §2, §3

[12] = system: Quackgrass; details: Table II, formulated immediately prior to treatment
From the text: as §1, §2, §3

[13] = system: Rice; details: Table III, 2 WAT
From the text: as §1, §2, §3

[14] = system: Soybean; details: Table III, 2 WAT
From the text: as §1, §2, §3

[15] = system: Sugar Beet; details: Table III, 2 WAT
From the text: as §1, §2, §3

[16] = system: Velvetleaf
From the text: as §1, §2, §3

[17] = system: Wild Buckwheat; details: Table III, 2 WAT
From the text: as §1, §2, §3

[18] = system: Yellow Nutsedge; details: Table II, formulated immediately prior to treatment
From the text: as §1, §2, §3

[19] = Table II, 2 WAT, 5.6 kg/h, formulated immediately prior to treatment
[20] = Table II, 2 WAT, 11.2 kg/h, formulated immediately prior to treatment
[21] = Table II, 4 WAT, 5.6 kg/h, formulated immediately prior to treatment
[22] = Table II, 4 WAT, 11.2 kg/h, formulated immediately prior to treatment

## CC(C)OC(=O)CNCP(=O)(O)O[Si](c1ccccc1)(c1ccccc1)C(C)(C)C [Ex. 2, Glycine, N((([(1,1-Dimethylethyl)Diphenylsilyl]oxy)-Hydroxyphosphinyl)-, methyl)-, 1-Methylethyl Ester]
[1]; [19]
  Plant Response Index (K): 3 (75-99% inhibition)
[1]; [20]
  Plant Response Index (K): 3 (75-99% inhibition)
[1]; [21]
  Plant Response Index (K): 3 (75-99% inhibition)
[1]; [22]
  Plant Response Index (K): 3 (75-99% inhibition)
[1]; Table III, 2 WAT, 1.1 kg/h
  Plant Response Index (K): 1 (25-49% inhibition)
[1]; Table III, 2 WAT, 5.6 kg/h
  Plant Response Index (K): 3 (75-99% inhibition)
[2]; 2 WAT, 5.6 kg/h
  Plant Response Index (A): 3 (75-99% inhibition)
[2]; 2 WAT, 11.2 kg/h
  Plant Response Index (A): 1 (25-49% inhibition)
[2]; 4 WAT, 5.6 kg/h
  Plant Response Index (A): 3 (75-99% inhibition)
[2]; 4 WAT, 11.2 kg/h
  Plant Response Index (A): 1 (25-49% inhibition)
[3]; [19]
  Plant Response Index (B): 2 (50-74% inhibition)
[3]; [20]
  Plant Response Index (B): 3 (75-99% inhibition)
[3]; [21]
  Plant Response Index (B): 2 (50-74% inhibition)
[3]; [22]
  Plant Response Index (B): 3 (75-99% inhibition)
[3]; Table III, 2 WAT, 1.1 kg/h
  Plant Response Index (B): 0 (0-24% inhibition)
[3]; Table III, 2 WAT, 5.6 kg/h
  Plant Response Index (B): 3 (75-99% inhibition)
[4]; [19]
  Plant Response Index (E): 3 (75-99% inhibition)
[4]; [20]
  Plant Response Index (E): 3 (75-99% inhibition)
[4]; [21]
  Plant Response Index (E): 2 (50-74% inhibition)
[4]; [22]
  Plant Response Index (E): 3 (75-99% inhibition)
[4]; Table III, 2 WAT, 1.1 kg/h
  Plant Response Index (E): 3 (75-99% inhibition)
[4]; Table III, 2 WAT, 5.6 kg/h
  Plant Response Index (E): 3 (75-99% inhibition)
[5]; [19]
  Plant Response Index (J): 2 (50-74% inhibition)
[5]; [20]
  Plant Response Index (J): 3 (75-99% inhibition)
[5]; [21]
  Plant Response Index (J): 2 (50-74% inhibition)
[5]; [22]
  Plant Response Index (J): 3 (75-99% inhibition)
[5]; Table III, 2 WAT, 1.1 kg/h
  Plant Response Index (J): 0 (0-24% inhibition)
[5]; Table III, 2 WAT, 5.6 kg/h
  Plant Response Index (J): 3 (75-99% inhibition)
[6]; 1.1 kg/h
  Plant Response Index (R): 0 (0-24% inhibition)
[6]; 5.6 kg/h
  Plant Response Index (R): 3 (75-99% inhibition)
[7]; 2 WAT, 5.6 kg/h
  Plant Response Index (I): 3 (75-99% inhibition)
[7]; 2 WAT, 11.2 kg/h
  Plant Response Index (I): 3 (75-99% inhibition)
[7]; 4 WAT, 5.6 kg/h
  Plant Response Index (I): 3 (75-99% inhibition)
[7]; 4 WAT, 11.2 kg/h
  Plant Response Index (I): 3 (75-99% inhibition)
[8]; 1.1 kg/h
  Plant Response Index (T): 2 (50-74% inhibition)
[8]; 5.6 kg/h
  Plant Response Index (T): 3 (75-99% inhibition)
[9]; [19]
  Plant Response Index (D): 2 (50-74% inhibition)
[9]; [20]
  Plant Response Index (D): 3 (75-99% inhibition)
[9]; [21]
  Plant Response Index (D): 2 (50-74% inhibition)
[9]; [22]
  Plant Response Index (D): 3 (75-99% inhibition)
[9]; Table III, 2 WAT, 1.1 kg/h
  Plant Response Index (D): 0 (0-24% inhibition)
[9]; Table III, 2 WAT, 5.6 kg/h
  Plant Response Index (D): 3 (75-99% inhibition)
[10]; 1.1 kg/h
  Plant Response Index (S): 0 (0-24% inhibition)
[10]; 5.6 kg/h
  Plant Response Index (S): 3 (75-99% inhibition)
[11]; [19]
  Plant Response Index (F): 3 (75-99% inhibition)
[11]; [20]
  Plant Response Index (F): 4 (100% inhibition)
[11]; [21]
  Plant Response Index (F): 4 (100% inhibition)
[11]; [22]
  Plant Response Index (F): 4 (100% inhibition)
[11]; Table III, 2 WAT, 1.1 kg/h
  Plant Response Index (F): 3 (75-99% inhibition)
[11]; Table III, 2 WAT, 5.6 kg/h
  Plant Response Index (F): 3 (75-99% inhibition)
[12]; 2 WAT, 5.6 kg/h
  Plant Response Index (H): 3 (75-99% inhibition)
[12]; 2 WAT, 11.2 kg/h
  Plant Response Index (H): 3 (75-99% inhibition)
[12]; 4 WAT, 5.6 kg/h
  Plant Response Index (H): 3 (75-99% inhibition)
[12]; 4 WAT, 11.2 kg/h
  Plant Response Index (H): 4 (100% inhibition)
[13]; 1.1 kg/h
  Plant Response Index (O): 0 (0-24% inhibition)
[13]; 5.6 kg/h
  Plant Response Index (O): 3 (75-99% inhibition)
[14]; 1.1 kg/h
  Plant Response Index (L): 0 (0-24% inhibition)
[14]; 5.6 kg/h
  Plant Response Index (L): 2 (50-74% inhibition)
[15]; 1.1 kg/h
  Plant Response Index (M): 0 (0-24% inhibition)
[15]; 5.6 kg/h
  Plant Response Index (M): 2 (50-74% inhibition)
[16]; [19]
  Plant Response Index (C): 2 (50-74% inhibition)
[16]; [20]
  Plant Response Index (C): 3 (75-99% inhibition)
[16]; [21]
  Plant Response Index (C): 2 (50-74% inhibition)
[16]; [22]
  Plant Response Index (C): 3 (75-99% inhibition)
[16]; Table III, 2 WAT, 1.1 kg/h
  Plant Response Index (C): 0 (0-24% inhibition)
[16]; Table III, 2 WAT, 5.6 kg/h
  Plant Response Index (C): 3 (75-99% inhibition)
[17]; 1.1 kg/h
  Plant Response Index (Q): 0 (0-24% inhibition)
[17]; 5.6 kg/h
  Plant Response Index (Q): 3 (75-99% inhibition)
[18]; 2 WAT, 5.6 kg/h
  Plant Response Index (G): 2 (50-74% inhibition)
[18]; 2 WAT, 11.2 kg/h
  Plant Response Index (G): 2 (50-74% inhibition)
[18]; 4 WAT, 5.6 kg/h
  Plant Response Index (G): 3 (75-99% inhibition)
[18]; 4 WAT, 11.2 kg/h
  Plant Response Index (G): 2 (50-74% inhibition)
